Earlier results in patent US4970081A, “Controlled-release, low-dose aspirin formulation and method of treating vascular occlusive disease therewith” (Sterling Drug Inc., priority 1989, dated 1990).

Assays:
[1] = tested on: endothelial cyclooxygenase; details: at the doses given in most clinical trials
[2] = tested on: cyclooxygenase in platelets; details: by acetylating cyclooxygenase in platelets
[3] = tested on: vascular occlusive events; details: oral aspirin, patients
prostacyclin (PC) = details: 1 mg every 30 minutes for 10 hours
thromboxane B2 (TX) = details: 1 mg every 30 minutes for 10 hours; at 10 hours
[4] = prior art dosage forms

## CC(=O)Oc1ccccc1C(=O)O [aspirin]
[1]
  effect on endothelial cyclooxygenase: inhibits endothelial cyclooxygenase
[2]
  effect on platelet adhesiveness: significantly decreases platelet adhesiveness
[3]
  protection from vascular occlusive events: statistically significant protection
Prostacyclin (PC)
  urinary PC: unaltered
Thromboxane B2 (TX)
  decrease in serum TX: 66%

## Nc1ccc(S(N)(=O)=O)cc1 [Sulfanilamide]
[4]
  release rate: 4.5 mg per hour
